Laboratory results from ChEMBL document CHEMBL3390836, “Mannich- and LedererManasse-based analogues of the natural product S-(+)-curcuphenol as cancer proliferation and migration inhibitors” (Medchemcomm, 2012).

What was measured:
Type in all cases: functional
HOP-62 [1] = experiment: Cytotoxicity against human HOP62 cells assessed as cell growth at 10^-8 M after 48 hrs by SRB assay relative to control; conditions: HOP-62, 48 h, read-out: Activity
SNB-75 = experiment: Cytotoxicity against human SNB75 cells assessed as cell growth at 10^-8 M after 48 hrs by SRB assay relative to control; conditions: SNB-75, 48 h, read-out: Activity
SF-539 [2] = experiment: Cytotoxicity against human SF539 cells assessed as cell growth at 10^-8 M after 48 hrs by SRB assay relative to control; conditions: SF-539, 48 h, read-out: Activity
SF-539 [3] = experiment: Cytotoxicity against human SF539 cells after 48 hrs by SRB assay; conditions: SF-539, 48 h
TK-10 [4] = experiment: Cytotoxicity against human TK10 cells assessed as cell growth at 10^-6 M after 48 hrs by SRB assay relative to control; conditions: TK-10, 48 h, read-out: Activity
NCI-H23 = experiment: Cytotoxicity against human NCI-H23 cells after 48 hrs by SRB assay; conditions: NCI-H23, 48 h
SN12C = experiment: Cytotoxicity against human SN12C cells assessed as cell growth at 10^-4 M after 48 hrs by SRB assay relative to control; conditions: read-out: Activity
SNB-19 [5] = experiment: Cytotoxicity against human SNB19 cells assessed as cell growth at 10^-6 M after 48 hrs by SRB assay relative to control; conditions: SNB-19, 48 h, read-out: Activity
A498 = experiment: Cytotoxicity against human A498 cells assessed as cell growth at 10^-6 M after 48 hrs by SRB assay relative to control; conditions: A498, 48 h, read-out: Activity
T47D = experiment: Cytotoxicity against human T47D cells after 48 hrs by SRB assay
NCI-H322M = experiment: Cytotoxicity against human NCI-H322M cells assessed as cell growth at 10^-4 M after 48 hrs by SRB assay relative to control; conditions: read-out: Activity
[6] = Cytotoxicity against human EKVX cells assessed as cell growth at 10^-4 M after 48 hrs by SRB assay relative to control; conditions: read-out: Activity
NCI-H226 [7] = experiment: Cytotoxicity against human NCI-H226 cells assessed as cell growth at 10^-4 M after 48 hrs by SRB assay relative to control; conditions: NCI-H226, 48 h, read-out: Activity
MDA-MB-435 [8] = experiment: Cytotoxicity against human MDA-MB-435 cells after 48 hrs by SRB assay; conditions: MDA-MB-435, 48 h
SK-MEL-5 = experiment: Cytotoxicity against human SK-MEL-5 cells assessed as cell growth at 10^-8 M after 48 hrs by SRB assay relative to control; conditions: SK-MEL-5, 48 h, read-out: Activity
MDA-MB-435 [9] = experiment: Cytotoxicity against human MDA-MB-435 cells assessed as cell growth at 10^-8 M after 48 hrs by SRB assay relative to control; conditions: MDA-MB-435, 48 h, read-out: Activity
ACHN = experiment: Cytotoxicity against human ACHN cells assessed as cell growth at 10^-4 M after 48 hrs by SRB assay relative to control; conditions: read-out: Activity
NCI-H460 = experiment: Cytotoxicity against human NCI-H460 cells after 48 hrs by SRB assay; conditions: NCI-H460, 48 h
[10] = Cytotoxicity against human HCT116 cells assessed as cell growth at 10^-7 M after 48 hrs by SRB assay relative to control; conditions: HCT-116, 48 h, read-out: Activity
TK-10 [11] = experiment: Cytotoxicity against human TK10 cells assessed as cell growth at 10^-7 M after 48 hrs by SRB assay relative to control; conditions: TK-10, 48 h, read-out: Activity
MCF7 = experiment: Cytotoxicity against human MCF7 cells assessed as cell growth at 10^-4 M after 48 hrs by SRB assay relative to control; conditions: MCF7, 48 h, read-out: Activity
[12] = Cytotoxicity against human OVCAR4 cells assessed as cell growth at 10^-7 M after 48 hrs by SRB assay relative to control; conditions: OVCAR-4, 48 h, read-out: Activity
SW-620 = experiment: Cytotoxicity against human SW620 cells assessed as cell growth at 10^-8 M after 48 hrs by SRB assay relative to control; conditions: SW-620, 48 h, read-out: Activity
HOP-62 [13] = experiment: Cytotoxicity against human HOP62 cells assessed as cell growth at 10^-6 M after 48 hrs by SRB assay relative to control; conditions: HOP-62, 48 h, read-out: Activity
MDA-MB-231 [14] = experiment: Cytotoxicity against human MDA-MB-231 cells assessed as cell growth at 10^-6 M after 48 hrs by SRB assay relative to control; conditions: MDA-MB-231, 48 h, read-out: Activity
[15] = Cytotoxicity against human NCI-ADR-RES cells after 48 hrs by SRB assay
U-251 [16] = experiment: Cytotoxicity against human U251 cells assessed as cell growth at 10^-6 M after 48 hrs by SRB assay relative to control; conditions: U-251, 48 h, read-out: Activity
U-251 [17] = experiment: Cytotoxicity against human U251 cells assessed as cell growth at 10^-7 M after 48 hrs by SRB assay relative to control; conditions: U-251, 48 h, read-out: Activity
LOX IMVI = experiment: Cytotoxicity against human LOXIMVI cells assessed as cell growth at 10^-6 M after 48 hrs by SRB assay relative to control; conditions: read-out: Activity
NCI-H226 [18] = experiment: Cytotoxicity against human NCI-H226 cells assessed as cell growth at 10^-6 M after 48 hrs by SRB assay relative to control; conditions: NCI-H226, 48 h, read-out: Activity
Malme-3M = experiment: Cytotoxicity against human MALME-3M cells assessed as cell growth at 10^-7 M after 48 hrs by SRB assay relative to control; conditions: read-out: Activity
MDA-MB-231 [19] = experiment: Cytotoxicity against human MDA-MB-231 cells assessed as cell growth at 10^-8 M after 48 hrs by SRB assay relative to control; conditions: MDA-MB-231, 48 h, read-out: Activity
IGROV-1 = experiment: Cytotoxicity against human IGROV1 cells assessed as cell growth at 10^-4 M after 48 hrs by SRB assay relative to control; conditions: IGROV-1, 48 h, read-out: Activity
COLO 205 = experiment: Cytotoxicity against human COLO205 cells after 48 hrs by SRB assay; conditions: COLO 205, 48 h
[20] = Cytotoxicity against human SKOV3 cells after 48 hrs by SRB assay; conditions: SK-OV-3, 48 h
SNB-19 [21] = experiment: Cytotoxicity against human SNB19 cells assessed as cell growth at 10^-8 M after 48 hrs by SRB assay relative to control; conditions: SNB-19, 48 h, read-out: Activity
[22] = read-out: LC50 (the source's name)

## CC(C)=CCC[C@H](C)c1ccc(C)c2c1OCN(CC1CCNCC1)C2
HOP-62 [1]
  growth at 0.01 µM: 104%
SNB-75
  growth at 0.01 µM: 92%
SF-539 [2]
  growth at 0.01 µM: 91%
SF-539 [3]
  GI50: 13.7 µM
  TGI: 27.5 µM
SF-539 [3]; [22]
  CC50: 55.3 µM
TK-10 [4]
  growth at 1 µM: 118%
NCI-H23
  GI50: 15.7 µM
  LC50: 72 µM
  TGI: 33.6 µM
SN12C
  growth at 100 µM: -88%
SNB-19 [5]
  growth at 1 µM: 94%
A498
  growth at 1 µM: 102%
T47D
  GI50: 15.2 µM
  LC50 (concentration killing 50% of cells): 72.8 µM
  TGI: 33.2 µM
NCI-H322M
  growth at 100 µM: -68%
[6]
  growth at 100 µM: -17%
NCI-H226 [7]
  growth at 100 µM: -84%
MDA-MB-435 [8]
  GI50: 6.48 µM
  TGI: 20.9 µM
MDA-MB-435 [8]; [22]
  CC50: 53.4 µM
SK-MEL-5
  growth at 0.01 µM: 99%
MDA-MB-435 [9]
  growth at 0.01 µM: 100%
ACHN
  growth at 100 µM: -89%
NCI-H460
  GI50: 5.36 µM
  TGI: 16.6 µM
NCI-H460; [22]
  CC50: 43.1 µM
[10]
  growth at 0.1 µM: 100%
TK-10 [11]
  growth at 0.1 µM: 113%
MCF7
  growth at 100 µM: -95%
[12]
  growth at 0.1 µM: 102%
SW-620
  growth at 0.01 µM: 96%
HOP-62 [13]
  growth at 1 µM: 90%
MDA-MB-231 [14]
  growth at 1 µM: 99%
[15]
  GI50: 16.8 µM
  LC50 (lethal concentration, 50% cell kill): 71.8 µM
  TGI: 34.8 µM
U-251 [16]
  growth at 1 µM: 100%
U-251 [17]
  growth at 0.1 µM: 101%
LOX IMVI
  growth at 1 µM: 99%
NCI-H226 [18]
  growth at 1 µM: 101%
Malme-3M
  growth at 0.1 µM: 94%
MDA-MB-231 [19]
  growth at 0.01 µM: 101%
IGROV-1
  growth at 100 µM: -86%
COLO 205
  GI50: 1860 nM
  TGI: 3.41 µM
COLO 205; [22]
  CC50: 6.25 µM
[20]
  GI50: 16.7 µM
  LC50 (concentration killing 50% of cells): 57.8 µM
  TGI: 31.1 µM
SNB-19 [21]
  growth at 0.01 µM: 95%
